Reference: ChEMBL document CHEMBL1121561, “Synthesis and antineoplastic activity of a novel series of phosphoramide mustard analogues of pyrimidine deoxyribonucleosides” (1980)
Activity calls are given as the source filed them. No cut-off for these calls is given here.

Key:
[1] = system: L1210; assay: Compound was tested in vitro for its inhibition against replication of L1210 neoplastic cells; type: functional; details: Mus musculus, read-out: ID50 (the source's name)
[2] = system: L1210; assay: Compound was tested in vitro for its inhibition against replication of L1210 neoplastic cells; Inactive; type: functional, cell-based; details: Mus musculus

Structure (SMILES) | IC50 [1] | ID50 [2]
O=c1[nH]c(=O)n(C2CC3OP(=O)(N(CCCl)CCCl)NCC3O2)cc1I (stereo not given) | 14 µM | 
Cc1cn(C2CC3OP(=O)(N(CCCl)CCCl)N(C)CC3O2)c(=O)[nH]c1=O (stereo not given) | 15 µM | 
O=P1(N(CCCl)CCCl)NCCCO1 (stereo not given) |  | inactive
Cc1cn(C2CC3OP(=O)(N(CCCl)CCCl)NCC3O2)c(=O)[nH]c1=O (stereo not given) | 12 µM | 
Cc1cn(C2CC3NP(=O)(N(CCCl)CCCl)NCC3O2)c(=O)[nH]c1=O (stereo not given) |  | inactive
